Values joined by “and” are separate entries in the source; they are usually repeats but may differ in a detail not shown here. Equal entries are not always repeated. Where two headings read alike, the source gives them in different places.
Columns and labels:
[1] = test system: native GABAARs in cerebellar granule cells; assay: Whole-cell patch clamp of cerebellar granule cells in mouse brain slices, cumulative concentration-response; format: cell-based; conditions: for Maximal current response (Imax ± SEM): 1 mM HT, 3 mM taurine, 3 mM GABA; for Maximal current response (Imax ± SEM) / Hill slope of the concentration-response curve / EC50: n = 7; for Concentration at which currents reach saturation / Threshold concentration for eliciting currents: cumulative application; for Hill slope of the concentration-response curve: normalized concentration-response curves; for EC50: read-out: EC50 for evoking GABAAR-mediated current, CGCs held at −70 mV, 10 μM DNQX, 0.3 μM TTX, room temperature, mean ± SEM
[2] = biological target: mouse brain native GABAARs; assay: 5 nM [3H]muscimol displacement from mouse brain (sans cerebellum) membranes; format: binding; conditions: n = 9; for IC50: 5 nM [3H]muscimol, mean ± SEM, read-out: IC50 for displacing [3H]muscimol binding
Protocol: Adult mouse brain (sans cerebellum) membrane pellets were prepared essentially as described by [Uusi-Oukari et al. (2014)], suspended in 50 mM Tris-HCl, pH 7.4 (assay buffer) and frozen at −80°C. For binding experiments, the suspension was thawed and washed by centrifugation/resuspension in assay buffer. 5 nM [^3H]muscimol binding was measured in assay buffer at room temperature (RT, ∼22°C) in a total volume of 300 µL. […] After 20 min incubation at room temperature the membranes were collected with a Brandel Cell Harvester (Model M-24, Gaithersburg, MD, United States) onto Whatman GF/B filters (Whatman International Ltd., Maidstone, United Kingdom). The samples were rinsed twice with 4–5 mL of ice-cold assay buffer. Filtration and rinsing steps took a total time of ∼15 s. Air-dried filters were immersed in 3 mL of Optiphase HiSafe 3 scintillation fluid (Wallac, Turku, Finland) and radioactivity determined in a Hidex 600 SL liquid scintillation counter (Hidex, Turku, Finland). [^3H]Muscimol displacement and electrophysiology data were analyzed with GraphPad Prism 7 software (GraphPad, San Diego, CA, United States). Data are presented as mean ± standard error of mean (SEM). Statistical data analysis was performed with a Student’s t-test (two-tailed distribution, unequal variance) in Microsoft Excel.

[3] = set-up: method as in Hey et al., 2018; conditions: ref Hey et al., 2018; cited from earlier work
[4] = test system: ρ1-GABAARs; set-up: method as in Ochoa-de la Paz et al., 2018; conditions: expressed in oocytes, ref Ochoa-de la Paz et al., 2018, cited from earlier work
[5] = test system: rat; set-up: method as in Olive et al., 2002; conditions: fold lower doses than acetyl-HT, rat models; ref Olive et al., 2002; cited from earlier work
[6] = test system: primary cultured neurons; set-up: method as in Gervais et al., 2007; conditions: 100 μM HT; ref Gervais et al., 2007; cited from earlier work
[7] = test system: GABAAR; set-up: method as in Allan and Harris, 1986; conditions: ref Allan and Harris, 1986; cited from earlier work
[8] = test system: chick embryonic neuronal cultures; set-up: method as in Louzada et al., 2004; conditions: 1 mM taurine; ref Louzada et al., 2004; cited from earlier work
[9] = test system: GABAARs in thalamocortical relay neurons; set-up: method as in Jia et al., 2008; conditions: ref Jia et al., 2008; cited from earlier work
[10] = test system: strychnine-sensitive glycine receptors; set-up: method as in Jia et al., 2008; conditions: ref Jia et al., 2008; cited from earlier work
[11] = test system: mice; set-up: method as in Singh et al., 2023; conditions: taurine 1 g/kg per day, ref Singh et al., 2023; cited from earlier work
[12] = test system: rat brain GABAARs; set-up: method as in Bureau and Olsen, 1991; conditions: ref Bureau and Olsen, 1991, read-out: Average IC50 for displacing [3H]muscimol; cited from earlier work

SMILES	Maximal current response (Imax ± SEM) [1] [pA]	Concentration at which currents reach saturation [1]	Threshold concentration for eliciting currents [1]	Hill slope of the concentration-response curve [1]	EC50 [1]	IC50 ([2]; room temperature)	Hill slope of the [3H]muscimol displacement curve [2]	further results
NCCCS(=O)(=O)O [HT, Homotaurine]	−75 ± 7	around 10 µM	~100 nM	0.79 ± 0.05	400 nM and 425 nM and ~400 nM	160 nM and 158 nM and ~200 nM	−0.79 ± 0.04	Potency relative to GABA ([1]; times more potent than GABA): about 10 times; Sensitivity of native CGC GABAARs relative to recombinant ρ1-GABAARs ([1]; times more sensitive to HT): about 1000 times; IC50 [2]: 158 ± 10 nM; IC50 ([2]; room temperature, listed as Homotaurine): 158 ± 10 nM; Estimated average total brain 14C-HT [3]: 0.55 µM; Type of agonism on recombinant ρ1-GABAARs [4]: partial agonist; EC50 ([4]; read-out: EC50 on recombinant ρ1-GABAARs): ~300000 nM; Dose that reduces alcohol intake, relative to acetyl-HT [5]: ~10 fold; Effect on neuronal death induced by 5 μM Aβ42 [6]: inhibited; Concentration that stimulates GABAAR-mediated chloride flux [7]: ≥ 100 µM
NCCS(=O)(=O)O [taurine, Taurine]	−67 ± 7	around 3 mM	around 10 μM	0.87 ± 0.06	116000 nM	125000 nM	−0.86 ± 0.04	Effect on neurotoxicity of 44 μM Aβ42 and glutamate receptor agonists [8]: prevented; Concentration that activates GABAARs [9]: ≥ 10 µM; Concentration that also activates strychnine-sensitive glycine receptors [10]: > 100 µM; Increase in life span [11]: 10%; IC50 [12]: ~50000 nM
COc1ccc(-c2ccc(=N)n(CCCC(=O)O)n2)cc1 [Gabazine]								Block of currents evoked by 1 mM HT, 3 mM taurine and 3 mM GABA ([1]; applied together with saturating agonist): completely blocks
NCCCC(=O)O [GABA]		~1 mM	300 nM	0.92 ± 0.13				
